According to patent US20140045856A1, “4-Methyl-2,3,5,9,9b-pentaaza-cyclopenta[a]naphthalenes” (BOEHRINGER INGELHEIM INTERNATIONAL GMBH, priority 2012, published 2014):
Where two headings read alike, the source gives them in different places.

Experiments:
PDE 10A = PDE 10A (Homo sapiens, UniProt Q9Y233); experiment: Radioactive PDE10 assay ([3H]cAMP SPA); format: biochemical
Method: (§1) The activity of the positive control (minus the negative control=background) is set to 100% and activity in the presence of compound is expressed relative to these 100%.
(§2) IC50 are calculated with GraphPadPrism or other suited software setting the positive control as 100 and the negative control as 0. For calculation of IC50 usually 11 dilutions of the test compound are selected.
protein concentration: 75 pg/μl
In detail the protocol is as follows:
(§3) Into a 384 well plate (OptiPlate, white), the following components are pipetted (either manually or using automated pipetting devices):
(§4) 20 μl test-compound solution (test compound diluted in assay buffer at twofold the desired concentration)
+10 μl PDE 10A preparation (enzyme diluted in assay buffer to a concentration of 0.3 ng/μl protein)
+10 μl cAMP tracer (diluted in assay buffer to a concentration of 80 nM cAMP, specific activity ˜4 mCi/l)
After addition of all 3 components the plates are shortly spun and incubated at room temperature for 60 min. The reaction is stopped by the addition of 20 μl Yttrium SPA PDE Beads containing 18 mM zinc sulphate in water
PDE 10A protein is expressed upon baculovirus infection in SF9 cells. The cells have been incubated upon infection for ˜3 days and protein production was confirmed by Western Blot. The cells were collected by centrifugation and the pellet frozen in liquid nitrogen before it was resuspended in PBS containing 1% Triton X-100 and protease inhibitors.

PDE10 = PDE10 (Homo sapiens, UniProt Q9Y233); experiment: PDE10 assay with fluorescent substrate (IMAP, fluorescence polarization); format: biochemical
Sequence of PDE10 (Q9Y233 whole entry, species assumed): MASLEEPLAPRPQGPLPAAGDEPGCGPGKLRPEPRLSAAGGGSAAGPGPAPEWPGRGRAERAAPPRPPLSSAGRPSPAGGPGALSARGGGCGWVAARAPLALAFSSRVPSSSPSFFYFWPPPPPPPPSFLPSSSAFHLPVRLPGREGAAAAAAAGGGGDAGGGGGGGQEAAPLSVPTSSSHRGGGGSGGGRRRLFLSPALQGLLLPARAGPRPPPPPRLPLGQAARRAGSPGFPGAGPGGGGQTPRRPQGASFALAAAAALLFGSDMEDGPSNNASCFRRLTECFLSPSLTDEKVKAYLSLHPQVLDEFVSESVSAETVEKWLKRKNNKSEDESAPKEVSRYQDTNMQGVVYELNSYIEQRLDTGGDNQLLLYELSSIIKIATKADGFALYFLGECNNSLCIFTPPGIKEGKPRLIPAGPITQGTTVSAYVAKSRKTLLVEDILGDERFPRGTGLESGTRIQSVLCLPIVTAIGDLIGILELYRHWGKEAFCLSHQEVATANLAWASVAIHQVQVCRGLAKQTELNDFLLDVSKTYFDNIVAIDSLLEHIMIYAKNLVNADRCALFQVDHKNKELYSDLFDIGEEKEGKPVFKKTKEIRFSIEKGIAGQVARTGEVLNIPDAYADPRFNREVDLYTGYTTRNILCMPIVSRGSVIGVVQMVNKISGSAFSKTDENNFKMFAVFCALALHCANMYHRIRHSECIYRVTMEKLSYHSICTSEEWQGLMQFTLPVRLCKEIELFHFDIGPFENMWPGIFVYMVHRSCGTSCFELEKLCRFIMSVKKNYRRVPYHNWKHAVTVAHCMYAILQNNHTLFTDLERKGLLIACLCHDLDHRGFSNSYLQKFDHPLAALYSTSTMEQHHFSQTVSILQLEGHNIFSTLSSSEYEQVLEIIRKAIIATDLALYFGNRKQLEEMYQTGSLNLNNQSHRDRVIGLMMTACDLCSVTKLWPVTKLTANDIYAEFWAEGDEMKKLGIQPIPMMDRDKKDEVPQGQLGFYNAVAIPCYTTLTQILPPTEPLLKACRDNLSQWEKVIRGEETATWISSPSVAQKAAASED
Source text: (§5) c) Phosphodiesterase (PDE) 2A and 10 Assay with Fluorescent Substrate
(§6) The PDE reaction cleaves cAMP to AMP. The IMAP system (Molecular Device) using fluorescence polarization (FP) as detection principle was used to measure enzyme activity. A fluorescent labeled cAMP was used as substrate for the reaction, generating a labeled AMP. The fluorescent AMP binds specifically to the large M(III)-based nano-particles which reduces the rotational speed of the substrate and thus increases its polarization.
(§7) The inhibition of PDE 2A or 10 enzyme activity was assessed using IMAP-Phosphodiesterase-cAMP fluorescence labeled substrate (Molecular Devices, Order No. R7506), IMAP TR-FRET screening express (Molecular Devices, Order No. R8160, the TR-FRET component will not be used) and PDE 2A or PDE10 protein expressed upon baculovirus infection in SF9 cells. The cells were incubated after infection for ˜3 days and protein production was confirmed by Western Blot. The cells were collected by centrifugation and the pellet frozen in liquid nitrogen before it was resuspended in PBS containing 1% Triton X-100 and protease inhibitors.
(§8) All reactions were performed in 384 well plates, Perkin Elmer black optiplates and IMAP reaction buffer with 0.1% Tween20 (kit component)
(§9) Compounds were serial diluted in DMSO. With an intermediate dilution step with reaction buffer DMSO concentration was reduced to achieve 1% DMSO in the assay reaction. Setup of the assay started with 10 μl enzyme (˜10 ng/well, depending on prep. batch), 5 μl compound, reaction was started by addition of 5 μl labeled cAMP (30 nM, final concentration), immediately mixed for 15 seconds on a Eppendorf mixmate (2000 rpm) followed by an incubation at room temperature for 90 minutes in the dark. Reaction is stopped by adding of 60 μl binding buffer for FP/cAMP (kit component).
(§10) Each assay plate contained wells with vehicle controls (1% DMSO) for the measurement of non-inhibited reaction (=100% control) and wells without enzyme as 0% controls.

[1] = Metabolic stability in pooled liver microsomes; format: in vitro ADME; settings: human liver microsomes, 37° C., 1 mg/mL microsomal protein, test compound 1 μM, NADPH
Method: The metabolic stability of the compounds according to the invention has been investigated as follows:
The metabolic degradation of the test compound was assayed at 37° C. with pooled liver microsomes from various species. The final incubation volume of 100 μl per time point contains TRIS buffer pH 7.6 at room temperature (0.1 M), magnesium chloride (5 mM), microsomal protein (1 mg/mL for human and dog, 0.5 mg/mL for other species) and the test compound at a final concentration of 1 μM. Following a short preincubation period at 37° C., the reactions were initiated by addition of betanicotinamide adenine dinucleotide phosphate, reduced form (NADPH, 1 mM), and terminated by transferring an aliquot into solvent after different time points. […] The half-life was determined by the slope of the semi-logarithmic plot of the concentration-time profile.

PDE2A [2] = target: T1, PDE2A (Homo sapiens, UniProt O00408); experiment: Radioactive PDE2 assay ([3H]cAMP SPA); format: biochemical
T1 sequence (O00408 whole entry, species assumed): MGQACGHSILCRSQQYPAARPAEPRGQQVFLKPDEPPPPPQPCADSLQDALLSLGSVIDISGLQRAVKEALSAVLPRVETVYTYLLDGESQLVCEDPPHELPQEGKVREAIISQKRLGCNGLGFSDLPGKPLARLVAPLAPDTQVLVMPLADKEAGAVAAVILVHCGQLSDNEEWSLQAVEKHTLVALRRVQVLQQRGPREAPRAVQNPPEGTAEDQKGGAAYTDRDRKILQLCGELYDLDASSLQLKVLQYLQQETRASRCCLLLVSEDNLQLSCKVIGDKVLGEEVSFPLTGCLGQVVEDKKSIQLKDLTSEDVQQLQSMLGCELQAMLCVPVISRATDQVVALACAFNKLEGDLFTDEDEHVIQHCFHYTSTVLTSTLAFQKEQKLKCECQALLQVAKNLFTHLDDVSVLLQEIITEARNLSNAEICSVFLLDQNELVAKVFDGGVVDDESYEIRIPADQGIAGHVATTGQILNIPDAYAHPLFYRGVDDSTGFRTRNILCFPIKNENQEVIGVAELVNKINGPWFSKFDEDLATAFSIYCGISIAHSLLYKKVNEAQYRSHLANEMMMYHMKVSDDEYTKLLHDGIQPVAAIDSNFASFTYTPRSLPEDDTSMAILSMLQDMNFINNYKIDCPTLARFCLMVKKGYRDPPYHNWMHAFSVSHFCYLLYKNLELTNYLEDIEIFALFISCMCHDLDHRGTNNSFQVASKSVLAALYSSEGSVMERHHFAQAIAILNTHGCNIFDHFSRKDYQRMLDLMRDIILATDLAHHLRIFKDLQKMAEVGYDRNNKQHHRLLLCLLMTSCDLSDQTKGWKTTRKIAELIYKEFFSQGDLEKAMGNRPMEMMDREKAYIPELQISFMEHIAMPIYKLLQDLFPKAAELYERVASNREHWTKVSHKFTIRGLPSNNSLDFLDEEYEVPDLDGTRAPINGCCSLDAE
Method: a) Radioactive PDE2 Assay Protocol:
PDE 2A protein is expressed upon baculovirus infection in SF9 cells. The cells have been incubated upon infection for ˜3 days and protein production was confirmed by Western Blot. The cells were collected by centrifugation and the pellet frozen in liquid nitrogen before it was resuspended in PBS containing 1% Triton X-100 and protease inhibitors.
as §3, §4
+10 μl PDE 2A preparation (enzyme diluted in assay buffer to a concentration of 0.5 ng/μl protein)
+10 μl [^3H]cAMP (diluted in assay buffer to a concentration of 80 nM cAMP)
positive control: no inhibitor, DMSO at the concentration as used in the compound dilutions
negative control: no PDE 2 (SF9 lysate instead of SF9/PDE 2A lysate)
Calculation of % Inhibition:
as §1, §2

PDE2A [3] = target: T1, PDE2A; experiment: PDE 2A assay with fluorescent substrate (IMAP, fluorescence polarization); format: biochemical; settings: read-out: PDE2 IC50
Source text: as §5, §6, §7, §8, §9, §10

hERG channel = hERG channel (Homo sapiens, UniProt Q12809); experiment: hERG channel assay (whole-cell patch clamp, HEK293 cells transfected with hERG cDNA); format: cell-based; settings: 35° C.
Sequence of hERG channel (Q12809 whole entry): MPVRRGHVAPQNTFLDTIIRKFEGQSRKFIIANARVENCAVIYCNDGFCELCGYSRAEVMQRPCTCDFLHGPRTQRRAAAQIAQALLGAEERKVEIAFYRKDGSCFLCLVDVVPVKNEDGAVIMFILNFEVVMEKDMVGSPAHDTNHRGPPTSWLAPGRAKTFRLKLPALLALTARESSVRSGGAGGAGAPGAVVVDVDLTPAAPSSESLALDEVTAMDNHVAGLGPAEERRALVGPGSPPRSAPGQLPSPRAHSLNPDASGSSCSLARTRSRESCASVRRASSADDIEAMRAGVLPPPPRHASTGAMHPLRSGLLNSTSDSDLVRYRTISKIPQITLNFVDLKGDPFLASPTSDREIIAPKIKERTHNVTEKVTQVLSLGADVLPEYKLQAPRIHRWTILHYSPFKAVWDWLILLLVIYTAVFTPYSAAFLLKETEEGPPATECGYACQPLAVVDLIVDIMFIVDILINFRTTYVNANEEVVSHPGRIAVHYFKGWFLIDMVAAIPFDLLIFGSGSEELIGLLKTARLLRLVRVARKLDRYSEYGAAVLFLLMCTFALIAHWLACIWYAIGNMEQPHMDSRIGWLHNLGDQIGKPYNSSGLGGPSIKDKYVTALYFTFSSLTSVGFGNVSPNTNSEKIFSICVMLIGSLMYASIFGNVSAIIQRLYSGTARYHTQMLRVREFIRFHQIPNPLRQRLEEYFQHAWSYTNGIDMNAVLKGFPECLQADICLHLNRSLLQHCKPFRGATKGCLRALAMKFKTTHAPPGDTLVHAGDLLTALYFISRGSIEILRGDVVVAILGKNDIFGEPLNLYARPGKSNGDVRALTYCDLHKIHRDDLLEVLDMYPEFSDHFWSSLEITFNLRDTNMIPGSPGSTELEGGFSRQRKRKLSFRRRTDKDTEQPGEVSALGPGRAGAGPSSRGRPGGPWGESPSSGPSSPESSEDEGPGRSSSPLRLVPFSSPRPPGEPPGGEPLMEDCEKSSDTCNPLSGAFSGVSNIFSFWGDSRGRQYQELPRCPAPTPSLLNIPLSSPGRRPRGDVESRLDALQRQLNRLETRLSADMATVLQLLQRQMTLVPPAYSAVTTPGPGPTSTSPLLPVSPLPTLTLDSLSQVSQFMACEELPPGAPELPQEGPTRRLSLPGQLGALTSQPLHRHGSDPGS
Source text: hERG (Human Ether-à-Go-Go-Related Gene)-Channel Assay
hERG channel inhibition of compounds of the present invention has been investigated as follows:
HEK (human embryonic kidney) 293 cells were stably transfected with hERG cDNA. Cells were superfused with a bath solution containing (mM): NaCl (137), KCl (4.0), MgCl2 (1.0), CaCl2 (1.8), Glucose (10), HEPES (10), pH 7.4 with NaOH. Patch pipettes were made from borosilicate glass tubing using a horizontal puller and filled with pipette solution containing (mM): K-aspartate (130), MgCl2 (5.0), EGTA (5.0), K2ATP (4.0), HEPES (10.0), pH 7.2 with KOH. Resistance of the microelectrodes was in the range between 2 and 5 MΩ.
Stimulation and Recording:
Membrane currents were recorded using an EPC-10 patch clamp amplifier and PatchMaster software. hERG-mediated membrane currents were recorded at 35° C., using the whole-cell configuration of the patch-clamp technique. Transfected HEK293 cells were clamped at a holding potential of −60 mV and hERG-mediated inactivating tail currents were elicited using a pulse pattern with fixed amplitudes (activation/inactivation: 40 mV for 2000 ms; recovery: […]; ramp to 40 mV in 2 ms; inactivating tail current: 40 mV for 50 ms) repeated at 15 s intervals. During each inter-pulse interval 4 pulses scaled down by a factor of 0.2 were recorded for a P/n leak subtraction procedure. […] compensation was employed up to a level that safely allowed recording devoid of ringing.
Compound Preparation and Application:
The different concentrations of the test compound were applied sequentially on each of the different cells investigated. A steady state level of baseline current was measured for at least 6 sweeps prior to the application of the first test compound concentration.
The test compound was dissolved in DMSO to yield a master stock solution which was diluted further in DMSO to stock solutions needed for the lower concentrations. Final dilutions in extracellular buffer were prepared freshly from these stocks by a 1:1000 dilution step each before starting the experiments.
Data analysis and IC50 determination:
Peak current amplitudes were measured 3 ms after the ramp to +40 mV. For baseline and each concentration the peak currents of the three last sweeps before application of the next concentration were averaged. Residual currents ( 1/10) were calculated for each cell as the fraction of actual average peak current and average baseline peak current.
The logistic concentration-response curve of the following form was fitted to the residual current data using a genetic algorithm:
C: actual concentration of compound (in μM) IC50: half-inhibitory concentration (in μM) p: Hill slope

[4] = Animal experiments and sample analysis: plasma, brain and CSF concentration; format: in vivo; settings: rat; for concentration at 0.5 h: 0.5 h between administration and CSF sampling; for concentration at 0.5 h / concentration at 2 h: doses of 10.0 or 5 μmol/kg; for concentration at 2 h / Kp at 2 h: 2 h between administration and CSF sampling
Method: Test compounds were administered to animals (rat) different routes at doses of 10.0 or 5 μmol/kg, (both oral and intravenous). After compound administration, the animals were sacrificed in a CO2 chamber and CSF samples were carefully collected by puncture of the cisterna magna. Immediately after CSF sampling, blood was taken by heart puncture and brains were dissected out. Blood was collected in EDTA-coated microvettes and plasma was prepared by centrifugation. Concentration of the test compounds in plasma, CSF or brain homogenate was determined using HPLC-MS-MS.

[5] = brain, read-out: c(brain)/c(plasma)

Sequence of PDE 10A (Q9Y233 whole entry, species assumed): as the sequence (Q9Y233 whole entry, species assumed) above

Row | SMILES | IC50 (PDE 10A) [nM] | IC50 (PDE10) [nM] | Half-life - t½ [1] [h] | IC50 (PDE2A [2]) [nM] | IC50 (PDE2A [3]) [nM] | IC50 (hERG channel) [nM] | further results
1 | Cc1nc2cccnc2n2c(-c3cc(O)ccc3Cl)nnc12 [Example 1] | 421 | 355 | 2.17 | – | – | – | –
2 | Cc1ccc2nc(C)c3nnc(-c4cc(O)ccc4Cl)n3c2n1 [Example 2] | 40 | 33 | – | 4 | 3 | – | –
3 | Cc1ccc2nc(C)c3nnc(-c4cccc(O)c4)n3c2n1 [Example 3] | 411 | – | – | 155 | – | – | –
4 | Cc1nc2cccnc2n2c(-c3cc(O)ccc3F)nnc12 [Example 4] | 441 | 256 | – | 138 | 120 | – | –
5 | Cc1nc2cccnc2n2c(-c3cc(OCCCO)ccc3Cl)nnc12 [Example 13] | 2190 | 6360 | 2.17 | 53 | 95 | > 10000 | –
6 | Cc1nc2cccnc2n2c(-c3cc(OCCO)ccc3Cl)nnc12 [Example 15] | – | 1120 | – | 40 | 112 | – | –
7 | Cc1nc2cccnc2n2c(-c3cc(OCCC(C)O)ccc3Cl)nnc12 (stereo not shown) [Example 19] | 3010 | – | – | 146 | – | – | –
8 | Cc1nc2cccnc2n2c(-c3cc(OC4CCOCC4)ccc3Cl)nnc12 [Example 20] | 2760 | – | 2.17 | – | – | > 10000 | concentration at 0.5 h ([4]; brain, read-out: conc brain): 272 nM; concentration at 0.5 h ([4]; plasma, read-out: conc plasma): 338 nM; concentration at 0.5 h ([4]; read-out: conc CSF): 37 nM
9 | Cc1nc2cccnc2n2c(-c3cc(OC4CCC(F)(F)CC4)ccc3Cl)nnc12 [Example 21] | 2820 | 7050 | 2.17 | 70 | 22 | > 10000 | –
10 | Cc1nc2cccnc2n2c(-c3cc(OC4CCOC4)ccc3Cl)nnc12 (stereo not shown) [Example 22] | – | – | – | 115 | 207 | – | –
11 | Cc1nc2cccnc2n2c(-c3cc(O[C@@H]4CCOC4)ccc3Cl)nnc12 [Example 23] | – | – | – | 71 | 216 | – | –
12 | Cc1nc2cccnc2n2c(-c3cc(O[C@H]4CCOC4)ccc3Cl)nnc12 [Example 24] | – | – | – | 138 | – | – | –
13 | Cc1nc2cccnc2n2c(-c3cc(OCC4CCOC4)ccc3Cl)nnc12 (stereo not shown) [Example 25] | 3260 | 7330 | – | 55 | 38 | – | –
14 | Cc1nc2cccnc2n2c(-c3cc(OCCCO)ccc3F)nnc12 [Example 26] | 1380 | – | – | 116 | – | – | –
15 | Cc1ccc2nc(C)c3nnc(-c4cc(OCCCO)ccc4Cl)n3c2n1 [Example 27] | 970 | 958 | – | – | – | > 10000 | –
16 | COCCOc1ccc(Cl)c(-c2nnc3c(C)nc4ccc(C)nc4n23)c1 [Example 29] | 2380 | 5100 | – | 17 | 37 | – | –
17 | Cc1ccc2nc(C)c3nnc(-c4cc(OC5CCC(F)(F)CC5)ccc4Cl)n3c2n1 [Example 30] | 3920 | 2570 | 2.17 | 27 | 20 | – | –
18 | COCCCOc1ccc(Cl)c(-c2nnc3c(C)nc4ccc(C)nc4n23)c1 [Example 31] | 1900 | 2900 | – | 7 | 8 | – | –
19 | Cc1ccc2nc(C)c3nnc(-c4cc(OCCCOC(F)(F)F)ccc4Cl)n3c2n1 [Example 33] | – | – | – | 4 | 5 | – | –
20 | Cc1ccc2nc(C)c3nnc(-c4cc(OC[C@H](C)O)ccc4Cl)n3c2n1 [Example 34] | – | – | 2.17 | 9 | 17 | > 10000 | concentration at 0.5 h ([4]; brain, read-out: conc brain): 146 nM; concentration at 0.5 h ([4]; plasma, read-out: conc plasma): 223 nM; concentration at 0.5 h ([4]; read-out: conc CSF): 19 nM
21 | Cc1ccc2nc(C)c3nnc(-c4cc(OC[C@@H](C)O)ccc4Cl)n3c2n1 [Example 35] | – | – | 2.17 | 9 | 17 | – | –
22 | Cc1ccc2nc(C)c3nnc(-c4cccc(OCCCO)c4)n3c2n1 [Example 36] | 850 | – | – | 219 | – | – | –
23 | Cc1nc2cccnc2n2c(-c3cc(OCC4(C)COC4)ccc3Cl)nnc12 [Example 37] | 3080 | – | – | 171 | – | – | –
24 | Cc1nc2cccnc2n2c(-c3cc(OC(C)C4CCOCC4)ccc3Cl)nnc12 (stereo not shown) [Example 38] | 1960 | – | – | 417 | – | – | –
25 | Cc1nc2cccnc2n2c(-c3cc(OC4CCC(O)CC4)ccc3Cl)nnc12 (stereo not shown) [Example 39] | 2100 | – | – | 914 | – | – | –
26 | Cc1nc2cccnc2n2c(-c3cc(OC4CCC(O)C4)ccc3Cl)nnc12 (stereo not shown) [Example 40] | – | – | – | 80 | 77 | – | –
27 | Cc1nc2ccc(C3CC3)nc2n2c(-c3cc(OCC(C)(C)O)ccc3F)nnc12 [Example 47] | – | 852 | 2.17 | – | 8 | > 10000 | concentration at 2 h ([4]; brain, read-out: conc brain): 441 nM; Kp at 2 h [4, 5]: 0.7; concentration at 2 h ([4]; plasma, read-out: conc plasma): 622 nM; concentration at 2 h ([4]; read-out: conc CSF): 22 nM; Kp at 2 h ([4]; read-out: c(CSF)/c(plasma)): 0.04
28 | Cc1nc2cccnc2n2c(-c3cc(OCC4(O)CCC4)ccc3Cl)nnc12 [Example 49] | – | 3760 | 2.17 | – | 33 | > 10000 | concentration at 2 h ([4]; brain, read-out: conc brain): 47 nM; Kp at 2 h [4, 5]: 0.2; concentration at 2 h ([4]; plasma, read-out: conc plasma): 239 nM; concentration at 2 h ([4]; read-out: conc CSF): 13 nM; Kp at 2 h ([4]; read-out: c(CSF)/c(plasma)): 0.06
29 | Cc1nc2cccnc2n2c(-c3cc(CCC(C)(C)O)ccc3Cl)nnc12 [Example 64] | – | 3870 | 2.17 | – | 45 | > 10000 | concentration at 2 h ([4]; brain, read-out: conc brain): 254 nM; Kp at 2 h [4, 5]: 0.5; concentration at 2 h ([4]; plasma, read-out: conc plasma): 783 nM; concentration at 2 h ([4]; read-out: conc CSF): 37 nM; Kp at 2 h ([4]; read-out: c(CSF)/c(plasma)): 0.06
30 | Cc1nc2ccc(C3CC3)nc2n2c(-c3cc(C(C)(C)O)ccc3F)nnc12 [Example 76] | – | 1100 | 2.17 | – | 21 | > 10000 | concentration at 2 h ([4]; brain, read-out: conc brain): 218 nM; Kp at 2 h [4, 5]: 0.5; concentration at 2 h ([4]; plasma, read-out: conc plasma): 463 nM; concentration at 2 h ([4]; read-out: conc CSF): 18 nM; Kp at 2 h ([4]; read-out: c(CSF)/c(plasma)): 0.04
